Assay results taken from patent publication US10858364B2, “Imidazopyrazine inhibitors of Bruton's tyrosine kinase” (Acerta Pharma B.V., priority 2016, dated 2020).

Tests used:
BTK [1] = target: T1, BTK (Homo sapiens (Human), UniProt Q06187); assay: BTK enzyme activity, IMAP assay; type: biochemical; details: 60 min pre-incubation, 5 μM ATP
Method: BTK enzyme activity is measured using the IMAP (immobilized metal ion affinity-based fluorescence polarization) assay as outlined below. BTK enzyme (His-BTK (Millipore catalog #14-552)), is diluted to 0.4 U/mL in KR buffer (10 mM Tris-HCl, 10 mM MgCl2, 0.01% Tween-20, 0.05% NaN3, 1 mM DTT, 2 mM MnCl2, pH 7.2). Serial dilutions log 10 from 2 mM to 63.2 nM of test compounds are made in 100% DMSO. The dilutions in DMSO are then diluted 50-fold in KR-buffer. Final compound concentration range in the assay ranged from 10 μM to 0.316 nM. The assay is performed as follows: 5 μL/well of test compound in KR buffer (final DMSO concentration in the assay is […]) is mixed with 5 µl/well of 0.4 U/mL BTK enzyme (final concentration in the assay is 0.1 U/mL). […] After 60 min incubation at room temperature in the dark the FP signal is read. Fluorescence at 535 nm is measured using parallel and perpendicular filters to determine differences in rotation due to binding of the phosphorylated substrate peptide to the beads. Values are calculated as percentage of the difference in readout (AmPi) of the controls with and without ATP. IC50 values are determined by curve fitting of the experimental results in Dotmatics.
Target sequence in this assay (Q06187 whole entry): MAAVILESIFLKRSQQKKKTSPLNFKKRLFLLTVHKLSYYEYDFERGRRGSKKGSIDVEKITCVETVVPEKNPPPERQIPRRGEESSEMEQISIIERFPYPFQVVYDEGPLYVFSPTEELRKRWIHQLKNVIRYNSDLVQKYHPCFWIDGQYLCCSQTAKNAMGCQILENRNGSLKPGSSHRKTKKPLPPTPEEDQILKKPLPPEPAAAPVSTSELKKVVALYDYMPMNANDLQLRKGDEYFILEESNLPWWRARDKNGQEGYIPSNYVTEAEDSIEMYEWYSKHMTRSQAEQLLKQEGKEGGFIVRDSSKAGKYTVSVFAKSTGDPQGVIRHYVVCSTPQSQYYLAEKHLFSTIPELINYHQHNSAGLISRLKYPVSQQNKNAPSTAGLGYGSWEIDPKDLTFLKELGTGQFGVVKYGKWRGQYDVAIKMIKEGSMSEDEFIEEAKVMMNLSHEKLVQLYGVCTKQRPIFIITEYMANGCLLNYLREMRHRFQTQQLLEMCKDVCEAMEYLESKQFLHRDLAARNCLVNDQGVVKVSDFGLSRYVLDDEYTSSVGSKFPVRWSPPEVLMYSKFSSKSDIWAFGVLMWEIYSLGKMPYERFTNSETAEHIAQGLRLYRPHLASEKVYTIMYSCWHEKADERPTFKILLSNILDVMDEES

BMX [2] = target: T2, BMX (Homo sapiens (Human), UniProt P51813); assay: BMX Z'-LYTE kinase assay; type: biochemical; details: 1 h pre-incubation, Km ATP
T2 sequence (P51813 whole entry): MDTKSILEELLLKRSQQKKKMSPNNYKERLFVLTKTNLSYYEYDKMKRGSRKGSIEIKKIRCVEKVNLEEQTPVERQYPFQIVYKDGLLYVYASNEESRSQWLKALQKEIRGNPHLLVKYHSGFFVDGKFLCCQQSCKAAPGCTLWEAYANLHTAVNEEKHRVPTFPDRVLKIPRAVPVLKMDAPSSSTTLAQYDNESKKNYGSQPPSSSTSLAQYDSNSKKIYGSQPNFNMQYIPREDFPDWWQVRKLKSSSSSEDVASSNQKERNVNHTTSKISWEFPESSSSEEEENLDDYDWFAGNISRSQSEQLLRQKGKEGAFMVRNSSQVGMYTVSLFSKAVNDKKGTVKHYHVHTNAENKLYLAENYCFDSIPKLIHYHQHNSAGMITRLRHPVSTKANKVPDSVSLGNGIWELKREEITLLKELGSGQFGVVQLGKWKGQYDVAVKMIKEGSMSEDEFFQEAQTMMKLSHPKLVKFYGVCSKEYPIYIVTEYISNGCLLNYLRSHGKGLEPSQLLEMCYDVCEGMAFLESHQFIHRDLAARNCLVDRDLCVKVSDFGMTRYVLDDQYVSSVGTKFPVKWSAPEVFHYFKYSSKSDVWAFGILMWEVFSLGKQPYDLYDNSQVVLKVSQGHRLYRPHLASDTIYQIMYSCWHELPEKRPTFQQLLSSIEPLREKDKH
Method: (§1) BMX, TXK, EGFR, ERBB2, ERBB4, JAK3, BLK kinase activity was measured using the Z′-LYTE assay at Thermo Fisher. A 10-point dose response (final concentration in assay ranged from 10 μM to 0.5 nM in 3-fold dilution per dilution step) was generated with 1 h incubation of the test compound with the kinase prior to initiation of the kinase reaction by the addition of ATP. ATP concentration in the assay was Km ATP for the different kinases. IC50 values are determined by curve fitting of the experimental results at Thermo Fisher.

EGFR = EGFR (Homo sapiens (Human), UniProt P00533); assay: EGFR Z'-LYTE kinase assay; type: biochemical; details: 1 h pre-incubation, Km ATP
Chain of EGFR (P00533 25-1210): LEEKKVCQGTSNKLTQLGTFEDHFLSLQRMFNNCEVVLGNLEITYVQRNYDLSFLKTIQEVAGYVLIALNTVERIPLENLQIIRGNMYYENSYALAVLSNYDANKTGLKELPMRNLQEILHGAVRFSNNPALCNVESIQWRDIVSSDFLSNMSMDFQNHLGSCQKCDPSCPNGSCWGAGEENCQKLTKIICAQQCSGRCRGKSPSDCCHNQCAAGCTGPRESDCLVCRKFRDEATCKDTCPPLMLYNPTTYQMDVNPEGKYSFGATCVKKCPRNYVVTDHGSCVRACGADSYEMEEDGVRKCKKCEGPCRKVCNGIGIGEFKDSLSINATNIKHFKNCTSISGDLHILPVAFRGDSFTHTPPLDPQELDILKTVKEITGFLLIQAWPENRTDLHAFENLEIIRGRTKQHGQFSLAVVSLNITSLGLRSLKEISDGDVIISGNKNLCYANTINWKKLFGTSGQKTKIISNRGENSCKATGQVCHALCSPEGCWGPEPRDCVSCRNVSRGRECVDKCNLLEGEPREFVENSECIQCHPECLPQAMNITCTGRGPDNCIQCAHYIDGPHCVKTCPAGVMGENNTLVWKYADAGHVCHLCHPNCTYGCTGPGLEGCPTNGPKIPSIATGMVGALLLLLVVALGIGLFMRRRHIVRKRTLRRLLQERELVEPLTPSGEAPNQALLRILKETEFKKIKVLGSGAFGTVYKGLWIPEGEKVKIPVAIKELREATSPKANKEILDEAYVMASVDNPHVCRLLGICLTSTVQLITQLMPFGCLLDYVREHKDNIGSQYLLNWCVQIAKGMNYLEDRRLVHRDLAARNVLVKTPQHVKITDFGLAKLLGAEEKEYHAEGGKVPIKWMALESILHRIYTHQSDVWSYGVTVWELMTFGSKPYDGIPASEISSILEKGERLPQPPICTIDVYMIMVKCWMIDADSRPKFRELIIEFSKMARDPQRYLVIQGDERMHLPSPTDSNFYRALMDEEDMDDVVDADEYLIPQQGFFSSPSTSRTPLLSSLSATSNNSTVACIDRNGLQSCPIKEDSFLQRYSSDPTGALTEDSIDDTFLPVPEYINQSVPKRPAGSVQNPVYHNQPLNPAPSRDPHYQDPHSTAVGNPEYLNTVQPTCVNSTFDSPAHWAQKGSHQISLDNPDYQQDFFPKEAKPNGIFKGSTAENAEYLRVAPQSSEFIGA
Method: as §1

ERBB2 = ERBB2 (Homo sapiens (Human), UniProt P04626); assay: ERBB2 Z'-LYTE kinase assay; type: biochemical; details: 1 h pre-incubation, Km ATP
Method: as §1

BLK = BLK (Homo sapiens (Human), UniProt P51451); assay: BLK Z'-LYTE kinase assay; type: biochemical; details: 1 h pre-incubation, Km ATP
Chain of BLK (P51451 whole entry): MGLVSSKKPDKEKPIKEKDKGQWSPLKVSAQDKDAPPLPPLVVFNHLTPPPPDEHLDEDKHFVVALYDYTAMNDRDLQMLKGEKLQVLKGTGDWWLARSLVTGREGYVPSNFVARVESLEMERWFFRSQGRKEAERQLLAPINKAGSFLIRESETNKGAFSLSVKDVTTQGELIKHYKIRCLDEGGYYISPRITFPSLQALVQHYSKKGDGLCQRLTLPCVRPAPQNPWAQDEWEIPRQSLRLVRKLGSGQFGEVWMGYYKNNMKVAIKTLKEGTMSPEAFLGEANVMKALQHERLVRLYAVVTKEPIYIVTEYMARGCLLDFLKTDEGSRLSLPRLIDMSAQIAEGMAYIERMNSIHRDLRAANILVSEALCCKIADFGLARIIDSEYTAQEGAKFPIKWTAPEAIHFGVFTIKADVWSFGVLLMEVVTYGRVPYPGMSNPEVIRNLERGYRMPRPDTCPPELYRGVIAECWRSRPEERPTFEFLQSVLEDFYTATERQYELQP
Method: as §1

JAK3 = JAK3 (Homo sapiens (Human), UniProt P52333); assay: JAK3 Z'-LYTE kinase assay; type: biochemical; details: 1 h pre-incubation, Km ATP
Chain of JAK3 (P52333 whole entry): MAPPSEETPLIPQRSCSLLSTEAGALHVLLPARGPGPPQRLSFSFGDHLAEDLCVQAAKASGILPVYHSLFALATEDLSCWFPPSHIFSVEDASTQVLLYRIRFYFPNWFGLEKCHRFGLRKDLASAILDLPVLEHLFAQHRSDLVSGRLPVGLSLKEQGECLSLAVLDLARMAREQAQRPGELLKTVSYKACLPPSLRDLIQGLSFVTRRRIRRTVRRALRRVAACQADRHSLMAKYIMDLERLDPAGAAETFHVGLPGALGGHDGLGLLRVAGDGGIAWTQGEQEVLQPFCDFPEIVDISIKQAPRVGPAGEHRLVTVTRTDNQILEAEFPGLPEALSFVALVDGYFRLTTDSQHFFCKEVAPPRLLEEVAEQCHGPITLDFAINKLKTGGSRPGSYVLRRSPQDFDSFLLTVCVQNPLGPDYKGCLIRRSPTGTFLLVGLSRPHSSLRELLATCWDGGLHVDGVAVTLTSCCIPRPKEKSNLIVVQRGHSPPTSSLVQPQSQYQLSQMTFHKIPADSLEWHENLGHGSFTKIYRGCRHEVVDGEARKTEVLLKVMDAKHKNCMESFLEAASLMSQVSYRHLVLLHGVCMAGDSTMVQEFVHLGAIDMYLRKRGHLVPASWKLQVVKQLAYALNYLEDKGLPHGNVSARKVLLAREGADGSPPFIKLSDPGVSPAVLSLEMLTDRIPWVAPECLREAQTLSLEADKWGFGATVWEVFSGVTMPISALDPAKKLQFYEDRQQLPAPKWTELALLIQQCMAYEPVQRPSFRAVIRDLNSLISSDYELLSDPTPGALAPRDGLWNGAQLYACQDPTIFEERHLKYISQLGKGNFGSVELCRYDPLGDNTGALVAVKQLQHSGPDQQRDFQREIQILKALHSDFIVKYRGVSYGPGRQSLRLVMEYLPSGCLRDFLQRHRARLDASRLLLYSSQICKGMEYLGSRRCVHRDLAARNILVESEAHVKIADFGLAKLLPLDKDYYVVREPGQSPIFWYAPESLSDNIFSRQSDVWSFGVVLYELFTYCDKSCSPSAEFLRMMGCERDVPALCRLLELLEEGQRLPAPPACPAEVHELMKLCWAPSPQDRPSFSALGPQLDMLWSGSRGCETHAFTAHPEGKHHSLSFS
Method: as §1

BTK [3] = target: T1, BTK; assay: BTK IMAP with ATP competition and variable pre-incubation; type: biochemical
Method: BTK enzyme activity with ATP competition was measured using the IMAP (immobilized metal ion affinity-based fluorescence polarization) assay. BTK enzyme (Millipore) was diluted to 16 nM, respectively in Kinase Reaction (KR) buffer (10 mM Tris-HCl, 10 mM MgCl2, 0.01% Tween-20, 0.1% NaN3, 1 mM DTT, 2 mM MnCl2, pH 7.5). Serial dilutions […] from 1 mM to 31.6 nM of test compounds were made in 100% DMSO. The dilutions in DMSO were then diluted 25-fold in KR-buffer. Final compound concentrations ranged from 10 μM to 0.316 nM. The assay is performed as follows: 5 μL/well of test compound in KR buffer (final DMSO concentration in the assay is 1%) was mixed with 5 µl/well of BTK or ITK enzyme (final concentration in the assay was 4 and 8 nM for BTK and ITK, respectively). Test compounds and kinase enzyme were pre-incubated 0, 30, or 60 min, before adding 5 μL/well of 200 nM Fluorescein labeled substrate peptide (Blk/Lyntide substrate, Molecular Devices) in KR-buffer. Final peptide substrate concentration in assay was 50 nM. The kinase assay was started by adding 5 μL/well of 20, 100, or 400 μM ATP in KR-buffer (final ATP concentration was 5, 25, or 100 μM ATP). Following incubation for 2h at room temperature the enzyme reaction was stopped by adding 40 μL/well IMAP Progressive Binding Solution (Molecular Devices), according to product instructions, using 60% lx buffer A and 40% lx buffer B with 800× diluted beads). After 60 min incubation at room temperature in the dark the FP signal was read. Fluorescence at 535 nm was measured using parallel and perpendicular filters to determine differences in rotation due to binding of the phosphorylated substrate peptide to the beads. Values were calculated as percentage of the difference in readout (AmPi) of the controls with and without ATP. IC50 values were determined by curve fitting of the experimental results using Dotmatics. […] M27 was tested in the BTK IMAP ATP competition assays with variable pre-incubation times (0, 30, and 60 minutes) and ATP concentrations (5, 25 and 100 μM). The results in Table 2 and FIG. 2 confirm that M27 is covalent inhibitors of BTK. […] Furthermore, there is loss of ATP competition following pre-incubation of BTK with M27, a result that is typical for compounds that bind covalently.
Target sequence in this assay (Q06187 whole entry): as the sequence (Q06187 whole entry) above

BMX [4] = target: T2, BMX; assay: DiscoveRx Kd dose response, BMX; type: binding
Method: Kinase profiling was performed with M27 was done at DiscoveRx at a single dose of 1 μM on all available kinases (KINOMEscan). The overall kinase selectivity score is in Table 6. […] Kinases inhibited >65% at 1 μM for M27 were followed up with a dose response at DiscoveRx. The M27 had IC50 values <1 μM for almost the same set of kinases with exception of TXK, but with additional inhibition of BRK (PTK6).

BTK [5] = target: T1, BTK; assay: BTK inhibition in a biochemical assay, relative to acalabrutinib
Target sequence in this assay (Q06187 whole entry, species assumed): as the sequence (Q06187 whole entry) above

Molecule `CC#CC(=O)NCCCC(=O)c1nc(-c2ccc(C(=O)Nc3ccccn3)cc2)c2c(N)nccn12` [Formula (I), 4-(8-amino-3-(4-(but-2-ynamido)butanoyl)imidazo[1,5-a]pyrazin-1-yl)-N-(pyridin-2-yl)benzamide] has an IC50 (BTK [1]) of 0.005 ± 0.001 µM, an IC50 (BMX [2]) of 0.015 ± 0.002 µM and an IC50 (EGFR) greater than 10 µM. The IC50 (ERBB2) was 0.552 ± 0.166 µM, the IC50 (BLK) was 6.17 ± 3.35 µM and the IC50 (JAK3) was greater than 10 µM. The IC50 (BTK [3]; 5 μM ATP, 0 minute pre-incubation) was 0.0273 µM, the IC50 (BTK [3]; 5 μM ATP, 30 minutes pre-incubation) was 0.0126 µM and the IC50 (BTK [3]; 5 μM ATP, 60 minutes pre-incubation) was 0.0069 µM. It also gave an IC50 (BTK [3]; 25 μM ATP, 0 minute pre-incubation) of 0.0724 µM, an IC50 (BTK [3]; 25 μM ATP, 30 minutes pre-incubation) of 0.0181 µM and an IC50 (BTK [3]; 25 μM ATP, 60 minutes pre-incubation) of 0.0095 µM. The IC50 (BTK [3]; 100 μM ATP, 0 minute pre-incubation) was 0.101 µM, the IC50 (BTK [3]; 100 μM ATP, 30 minutes pre-incubation) was 0.0237 µM and the IC50 (BTK [3]; 100 μM ATP, 60 minutes pre-incubation) was 0.0108 µM. The Kd (BMX [4]) was 0.19 µM and the “less potent than acalabrutinib with regard to BTK inhibition” value (BTK [5]) was “approximately 50%”.
For `CC#CC(=O)NCCCC(=O)c1nc(-c2ccc(C(=O)Nc3ccccn3)c(OC)c2)c2c(N)nccn12` [Formula (II), 4-(8-amino-3-(4-(but-2-ynamido)butanoyl)imidazo[1,5-a]pyrazin-1-yl)-2-methoxy-N-(pyridin-2-yl)benzamide], the IC50 (BTK [1]) was 0.0093 µM.
